ChEMBL document CHEMBL5523713, “Development of novel N-aryl-2,4-bithiazole-2-amine-based CYP1B1 degraders for reversing drug resistance” (Eur J Med Chem, 2024)
Calls of active or inactive are those of the source. No cut-off for these calls is given here. Peptide text beside a SMILES is read from it. * marks the point of attachment. Cbz = O=C(OCc1ccccc1)*

Tests used:
[1] = target: T1, Protein cereblon/Cytochrome P450 1B1 (Homo sapiens, UniProt Q16678+Q96SW2); experiment: PROTAC activity at CRBN/CYP1B1 in human A549/Taxol cells assessed as degradation by measuring fold change in remaining CYP1B1 level at 1000 nM incubated for 24 hrs by Western blotting analysis (reference value: 1); assay type: ADME, cell-based; settings: 1 µM
T1 sequence (Q96SW2 whole entry, one chain of several): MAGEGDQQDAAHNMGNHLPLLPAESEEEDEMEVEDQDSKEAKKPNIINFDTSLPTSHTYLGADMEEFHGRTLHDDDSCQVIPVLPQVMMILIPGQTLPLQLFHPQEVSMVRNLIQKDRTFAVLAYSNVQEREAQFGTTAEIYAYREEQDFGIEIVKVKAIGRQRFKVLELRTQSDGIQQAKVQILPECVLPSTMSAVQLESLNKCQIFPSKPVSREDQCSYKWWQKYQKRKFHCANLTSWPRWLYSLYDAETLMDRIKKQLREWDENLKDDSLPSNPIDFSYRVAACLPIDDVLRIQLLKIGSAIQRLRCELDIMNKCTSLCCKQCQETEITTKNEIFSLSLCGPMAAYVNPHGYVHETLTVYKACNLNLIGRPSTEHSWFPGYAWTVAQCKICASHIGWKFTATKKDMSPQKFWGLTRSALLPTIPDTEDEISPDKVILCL

[2] = target: T1, Protein cereblon/Cytochrome P450 1B1; experiment: PROTAC activity at CRBN/CYP1B1 in human A549/Taxol cells assessed as degradation by measuring fold change in remaining CYP1B1 level at 1 nM incubated for 24 hrs by Western blotting analysis (reference value: 1); assay type: ADME, cell-based; settings: 0.001 µM
[3] = tested on: A549/TR; experiment: Effect on total SRC protein level in human A549/Taxol cells incubated for 24 hrs by Western blotting analysis; assay type: functional, cell-based; settings: dose 0.1-10 nM
[4] = tested on: A549/TR; experiment: Inhibition of cell invasion in human A549/Taxol cells at 0.1 to 10 nM incubated for 24 hrs by crystal violet staining based transwell assay; assay type: functional; settings: dose 0.1-10 nM
[5] = target: T2, von Hippel-Lindau disease tumor suppressor/Cytochrome P450 1B1 (Homo sapiens, UniProt Q16678+P40337); experiment: PROTAC activity at VHL/CYP1B1 in human A549/Taxol cells assessed as degradation by measuring fold change in remaining CYP1B1 level at 1 nM incubated for 24 hrs by Western blotting analysis (reference value: 1); assay type: ADME, cell-based; settings: 0.001 µM
T2 sequence (P40337 whole entry, one chain of several): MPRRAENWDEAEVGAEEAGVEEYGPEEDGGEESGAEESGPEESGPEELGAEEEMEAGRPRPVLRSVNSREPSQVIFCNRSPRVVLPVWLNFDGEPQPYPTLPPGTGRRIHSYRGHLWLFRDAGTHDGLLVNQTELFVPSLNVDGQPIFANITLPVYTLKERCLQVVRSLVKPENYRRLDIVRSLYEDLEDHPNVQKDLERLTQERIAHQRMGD

[6] = tested on: A549/TR; experiment: Inhibition of epithelial-to-mesenchymal transition in human A549/Taxol cells assessed as upregulation of E-cadherin protein expression at 0.1 to 10 nM incubated for 24 hrs by immunoblot analysis; assay type: functional, cell-based; settings: dose 0.1-10 nM
[7] = tested on: A549/TR; experiment: Inhibition of epithelial-to-mesenchymal transition in human A549/Taxol cells assessed as downregulation of N-cadherin protein expression at 0.1 to 10 nM incubated for 24 hrs by immunoblot analysis; assay type: functional, cell-based; settings: dose 0.1-10 nM
[8] = target: T3, Cytochrome P450 1B1 (Homo sapiens, UniProt Q16678); experiment: Inhibition of recombinant human CYP1B1 using 7-ethyl-O-resorufin as substrate incubated for 30 mins in presence of NADPH by EROD assay; assay type: ADME; settings: human, recombinant enzyme, 0.5 h; time 30 min
T3 sequence (Q16678 whole entry): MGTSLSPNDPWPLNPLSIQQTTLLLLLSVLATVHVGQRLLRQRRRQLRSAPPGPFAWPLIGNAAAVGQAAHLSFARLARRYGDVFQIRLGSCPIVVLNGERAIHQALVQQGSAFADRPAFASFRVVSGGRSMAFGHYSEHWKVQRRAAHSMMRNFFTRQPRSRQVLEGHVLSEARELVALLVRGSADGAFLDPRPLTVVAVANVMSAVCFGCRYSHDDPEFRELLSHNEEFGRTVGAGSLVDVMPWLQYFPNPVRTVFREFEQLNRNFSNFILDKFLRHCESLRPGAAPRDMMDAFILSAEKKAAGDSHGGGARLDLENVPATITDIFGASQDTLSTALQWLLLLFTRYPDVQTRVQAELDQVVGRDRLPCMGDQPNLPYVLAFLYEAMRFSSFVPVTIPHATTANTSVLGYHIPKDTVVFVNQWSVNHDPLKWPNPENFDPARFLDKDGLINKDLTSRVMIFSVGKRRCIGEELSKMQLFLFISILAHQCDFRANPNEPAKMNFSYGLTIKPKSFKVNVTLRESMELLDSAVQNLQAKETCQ

[9] = tested on: A549/TR; experiment: Reversal of taxol resistance in human A549/Taxol cells assessed as decrease in cell viability at 0.1 nM incubated for 48 to 72 hrs by MTT assay; assay type: functional, cell-based; settings: time 48-72 hrs
[10] = target: T2, von Hippel-Lindau disease tumor suppressor/Cytochrome P450 1B1; experiment: PROTAC activity at VHL/CYP1B1 in human A549/Taxol cells assessed as reduction in CYP1B1 level at 10 nM incubated for 1 hr by Western blotting analysis; assay type: ADME, cell-based; settings: 0.01 µM
[11] = target: T2, von Hippel-Lindau disease tumor suppressor/Cytochrome P450 1B1; experiment: PROTAC activity at VHL/CYP1B1 in human A549/Taxol cells assessed as reduction in CYP1B1 level at 1000 nM incubated for 24 hrs by Western blotting analysis; assay type: ADME, cell-based; parameters: scale not given: the % may be the effect or the level left; settings: 1 µM
[12] = tested on: A549/TR; experiment: Inhibition of cell migration in human A549/Taxol cells incubated for 48 hrs by wound healing assay; assay type: functional, cell-based; settings: dose 0.1-10 nM
[13] = target: Proto-oncogene tyrosine-protein kinase Src (Homo sapiens) (UniProt P12931); experiment: Inhibition of SRC phosphorylation in human A549/Taxol cells incubated for 24 hrs by Western blotting analysis; assay type: cell-based; settings: dose 0.1-10 nM
Proto-oncogene tyrosine-protein kinase Src (Homo sapiens), sequence (P12931 2-536 limits assumed): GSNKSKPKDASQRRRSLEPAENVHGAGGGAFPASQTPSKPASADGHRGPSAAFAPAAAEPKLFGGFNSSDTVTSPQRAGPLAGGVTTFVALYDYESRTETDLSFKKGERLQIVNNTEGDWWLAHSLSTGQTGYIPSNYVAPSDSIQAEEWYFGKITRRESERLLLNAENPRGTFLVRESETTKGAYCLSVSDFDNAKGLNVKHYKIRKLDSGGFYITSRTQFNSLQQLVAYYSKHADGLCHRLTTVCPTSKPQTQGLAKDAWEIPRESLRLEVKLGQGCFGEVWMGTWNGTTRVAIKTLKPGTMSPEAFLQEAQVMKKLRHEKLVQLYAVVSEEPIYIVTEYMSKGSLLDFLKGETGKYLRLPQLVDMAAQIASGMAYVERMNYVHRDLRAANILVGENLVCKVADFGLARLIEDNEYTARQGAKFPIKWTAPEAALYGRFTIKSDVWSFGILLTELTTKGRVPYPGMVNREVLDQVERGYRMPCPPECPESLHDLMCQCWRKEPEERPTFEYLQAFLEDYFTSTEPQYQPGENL

[14] = tested on: A549/TR; experiment: Effect on paxillin protein level in human A549/Taxol cells at 0.1 to 10 nM incubated for 24 hrs by Western blotting analysis; assay type: functional, cell-based; settings: dose 0.1-10 nM
[15] = tested on: A549/TR; experiment: Effect on total FAK protein level in human A549/Taxol cells at 0.1 to 10 nM incubated for 24 hrs by Western blotting analysis; assay type: functional, cell-based; settings: dose 0.1-10 nM
[16] = target: T2, von Hippel-Lindau disease tumor suppressor/Cytochrome P450 1B1; experiment: PROTAC activity at VHL/CYP1B1 in human A549/Taxol cells assessed as reduction in CYP1B1 level at 1 nM incubated for 24 hrs by Western blotting analysis; assay type: ADME, cell-based; parameters: scale not given: the % may be the effect or the level left; settings: 0.001 µM
[17] = tested on: A549/TR; experiment: Inhibition of epithelial-to-mesenchymal transition in human A549/Taxol cells assessed as downregulation of vimentin protein expression at 0.1 to 10 nM incubated for 24 hrs by immunoblot analysis; assay type: functional, cell-based; settings: dose 0.1-10 nM
[18] = target: T2, von Hippel-Lindau disease tumor suppressor/Cytochrome P450 1B1; experiment: PROTAC activity at VHL/CYP1B1 in human A549/Taxol cells assessed as reduction in CYP1B1 level incubated for 24 hrs by Western blotting analysis; assay type: ADME, cell-based
[19] = tested on: A549/TR; experiment: Downregulation of P-glycoprotein expression in human A549/Taxol cells at 0.1 to 10 nM by Western blotting analysis; assay type: functional, cell-based; settings: dose 0.1-10 nM
[20] = target: von Hippel-Lindau disease tumor suppressor/Cytochrome P450 1A1 (Homo sapiens, UniProt P04798+P40337); experiment: PROTAC activity at VHL/CYP1A1 (unknown origin); assay type: ADME, protein assay
von Hippel-Lindau disease tumor suppressor/Cytochrome P450 1A1, sequence (P04798 whole entry): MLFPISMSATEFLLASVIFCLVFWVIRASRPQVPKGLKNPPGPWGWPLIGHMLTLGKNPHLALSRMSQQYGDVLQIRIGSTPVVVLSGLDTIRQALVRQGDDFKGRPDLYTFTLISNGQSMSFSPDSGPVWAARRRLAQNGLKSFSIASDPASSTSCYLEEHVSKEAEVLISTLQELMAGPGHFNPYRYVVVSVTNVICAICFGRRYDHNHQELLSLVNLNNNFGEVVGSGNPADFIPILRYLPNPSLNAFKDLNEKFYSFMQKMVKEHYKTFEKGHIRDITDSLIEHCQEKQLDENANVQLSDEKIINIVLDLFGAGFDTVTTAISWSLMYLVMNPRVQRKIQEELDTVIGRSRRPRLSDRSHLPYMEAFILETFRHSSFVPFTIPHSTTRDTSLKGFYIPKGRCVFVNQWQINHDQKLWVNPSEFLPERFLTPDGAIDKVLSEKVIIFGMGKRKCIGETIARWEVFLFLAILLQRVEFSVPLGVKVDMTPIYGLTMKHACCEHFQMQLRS
von Hippel-Lindau disease tumor suppressor/Cytochrome P450 1A1, sequence (P40337 whole entry): as the sequence (P40337 whole entry, one chain of several) above

[21] = target: T2, von Hippel-Lindau disease tumor suppressor/Cytochrome P450 1B1; experiment: PROTAC activity at VHL/CYP1B1 in human A549/Taxol cells assessed as degradation by measuring fold change in remaining CYP1B1 level at 1000 nM incubated for 24 hrs by Western blotting analysis (reference value: 1); assay type: ADME, cell-based; settings: 1 µM
[22] = target: T2, von Hippel-Lindau disease tumor suppressor/Cytochrome P450 1B1; experiment: PROTAC activity at VHL/CYP1B1 in human A549/Taxol cells assessed as reduction in CYP1B1 level at 10 nM incubated for 24 hrs by Western blotting analysis; assay type: ADME, cell-based; parameters: scale not given: the % may be the effect or the level left; settings: 0.01 µM
[23] = target: Focal adhesion kinase 1 (Homo sapiens) (UniProt Q05397); experiment: Inhibition of FAK phosphorylation in human A549/Taxol cells at 0.1 to 10 nM incubated for 24 hrs by Western blotting analysis; assay type: cell-based; settings: dose 0.1-10 nM
Focal adhesion kinase 1 (Homo sapiens), sequence (Q05397 2-1052 limits assumed): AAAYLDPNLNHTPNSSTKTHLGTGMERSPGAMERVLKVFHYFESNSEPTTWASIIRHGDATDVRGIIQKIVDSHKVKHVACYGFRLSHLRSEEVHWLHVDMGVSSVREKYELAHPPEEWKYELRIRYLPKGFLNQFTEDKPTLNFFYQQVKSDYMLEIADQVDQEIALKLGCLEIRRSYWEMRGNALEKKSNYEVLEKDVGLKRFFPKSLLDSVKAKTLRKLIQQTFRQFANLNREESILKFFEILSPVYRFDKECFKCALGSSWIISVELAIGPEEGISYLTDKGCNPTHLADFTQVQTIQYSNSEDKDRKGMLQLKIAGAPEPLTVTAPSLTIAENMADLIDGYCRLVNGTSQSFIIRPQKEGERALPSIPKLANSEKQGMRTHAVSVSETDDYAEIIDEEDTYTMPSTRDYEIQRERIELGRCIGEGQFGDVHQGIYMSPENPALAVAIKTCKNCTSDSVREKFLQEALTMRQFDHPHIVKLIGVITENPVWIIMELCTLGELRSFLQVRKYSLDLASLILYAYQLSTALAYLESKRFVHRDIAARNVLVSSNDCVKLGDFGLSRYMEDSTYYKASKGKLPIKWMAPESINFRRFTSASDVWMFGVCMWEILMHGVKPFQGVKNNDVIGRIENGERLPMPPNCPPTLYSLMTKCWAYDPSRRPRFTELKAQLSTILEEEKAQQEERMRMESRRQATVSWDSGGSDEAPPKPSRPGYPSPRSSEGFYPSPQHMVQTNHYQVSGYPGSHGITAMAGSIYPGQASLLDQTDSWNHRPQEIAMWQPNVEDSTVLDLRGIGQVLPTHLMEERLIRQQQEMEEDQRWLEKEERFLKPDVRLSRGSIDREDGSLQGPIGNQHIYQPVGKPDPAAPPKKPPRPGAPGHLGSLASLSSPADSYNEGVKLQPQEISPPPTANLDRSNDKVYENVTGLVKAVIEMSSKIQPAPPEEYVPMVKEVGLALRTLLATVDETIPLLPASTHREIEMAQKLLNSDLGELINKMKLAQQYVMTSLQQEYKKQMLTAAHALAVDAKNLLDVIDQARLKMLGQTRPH

[24] = tested on: A549/TR; experiment: Reversal of taxol resistance in human A549/Taxol cells assessed as decrease in cell viability at 1 to 10 nM incubated for 48 to 72 hrs by MTT assay; assay type: functional, cell-based; settings: dose 1-10 nM, time 48-72 hrs
[25] = target: T2, von Hippel-Lindau disease tumor suppressor/Cytochrome P450 1B1; experiment: PROTAC activity at VHL/CYP1B1 in human A549/Taxol cells assessed as reduction in CYP1B1 level at 1 uM incubated for 24 hrs by Western blotting analysis; assay type: ADME, cell-based

O=C1CCC(N2C(=O)c3cccc(NC(=O)CN4CCN(CCCCCCCCCCCC(=O)Nc5ccc(-c6csc(-c7csc(Nc8ccc(Cl)cc8)n7)n6)cc5)CC4)c3C2=O)C(=O)N1 (stereo unspecified)
fold change (FC) [1]: 1.1
fold change (FC) [2]: 1.5

O=C1CCC(N2C(=O)c3cccc(NC(=O)CN4CCN(CCCCCCCCCCC(=O)Nc5ccc(-c6csc(-c7csc(Nc8ccc(Cl)cc8)n7)n6)cc5)CC4)c3C2=O)C(=O)N1 (stereo unspecified)
fold change (FC) [1]: 1.5
fold change (FC) [2]: 1.2

Cc1ncsc1-c1ccc([C@H](C)NC(=O)[C@@H]2C[C@@H](O)CN2C(=O)[C@@H](NC(=O)CCCCCCOc2ccccc2-c2csc(-c3csc(Nc4ccc(Cl)cc4)n3)n2)C(C)(C)C)cc1
Activity [3]: Dose-Dependent Effect
inhibition [4]: Active
fold change (FC) [5]: 0.5
inhibition [6]: Active
inhibition [7]: Active
inhibition (INH) [8]: Active
Activity [9]: Active
Activity [10]: Active
Activity [11]: 60%
inhibition [12]: Dose-Dependent Effect
inhibition [13]: Active
Activity [14]: Active
Activity [15]: inactive
Activity [16]: 50%
inhibition [17]: Active
DC50 [18]: 100 pM
Activity [19]: Active
Activity [20]: Not Active
fold change (FC) [21]: 0.6
Activity [22]: 80%
inhibition [23]: Active
Activity [24]: Active

Cc1ncsc1-c1ccc([C@H](C)NC(=O)[C@@H]2C[C@@H](O)CN2C(=O)[C@@H](NC(=O)CCCCCCCCCOc2ccccc2-c2csc(-c3csc(Nc4ccc(Cl)cc4)n3)n2)C(C)(C)C)cc1
fold change (FC) [5]: 1.5
fold change (FC) [21]: 1.5

O=C1CCC(N2C(=O)c3cccc(NC(=O)CN4CCN(CCCCCC(=O)Nc5ccc(-c6csc(-c7csc(Nc8ccc(Cl)cc8)n7)n6)cc5)CC4)c3C2=O)C(=O)N1 (stereo unspecified)
fold change (FC) [1]: 1.2
fold change (FC) [2]: 1

Cc1ncsc1-c1ccc([C@H](C)NC(=O)[C@@H]2C[C@@H](O)CN2C(=O)[C@@H](NC(=O)CCCCCCCCOc2ccccc2-c2csc(-c3csc(Nc4ccc(Cl)cc4)n3)n2)C(C)(C)C)cc1
fold change (FC) [5]: 0.7
fold change (FC) [21]: 0.6

CC(C)C[C@@H](C=O)NC(=O)[C@H](CC(C)C)NC(=O)[C@H](CC(C)C)NC(=O)OCc1ccccc1 [MG-132] (Cbz-Leu-Leu-Leu-aldehyde)
Activity [25]: Not Active

Cc1ncsc1-c1ccc([C@H](C)NC(=O)[C@@H]2C[C@@H](O)CN2C(=O)[C@@H](NC(=O)CCCCCCCCCCOc2ccccc2-c2csc(-c3csc(Nc4ccc(Cl)cc4)n3)n2)C(C)(C)C)cc1
fold change (FC) [5]: 1.7
fold change (FC) [21]: 1.8

O=C1CCC(N2Cc3c(NC(=O)CCCCCCCC(=O)Nc4ccc(-c5csc(-c6csc(Nc7ccc(Cl)cc7)n6)n5)cc4)cccc3C2=O)C(=O)N1 (stereo unspecified)
fold change (FC) [1]: 1
fold change (FC) [2]: 0.8

Cc1ncsc1-c1ccc([C@H](C)NC(=O)[C@@H]2C[C@@H](O)CN2C(=O)[C@@H](NC(=O)Cn2cc(COCCOCCOc3ccccc3-c3csc(-c4csc(Nc5ccc(Cl)cc5)n4)n3)nn2)C(C)(C)C)cc1
fold change (FC) [5]: 1.1
fold change (FC) [21]: 1.3

Cc1ncsc1-c1ccc([C@H](C)NC(=O)[C@@H]2C[C@@H](O)CN2C(=O)[C@@H](NC(=O)CCCCCCCCCCCOc2ccccc2-c2csc(-c3csc(Nc4ccc(Cl)cc4)n3)n2)C(C)(C)C)cc1
fold change (FC) [5]: 0.9
fold change (FC) [21]: 2
